molecular target: T1, PIP4K2C (Homo sapiens, UniProt Q8TBX8); assay: Enzyme Binding Assay (KINOMEscan): active site-directed competition binding to an immobilized ligand; set-up: purchased Eurofins DiscoverX, San Diego, CA 87-0007-1094; details: 11-point dose response, duplicate, top concentration 5 micromolar; read-out: Pip4k2c Kd: IC50
T1 sequence (Q8TBX8 1-421): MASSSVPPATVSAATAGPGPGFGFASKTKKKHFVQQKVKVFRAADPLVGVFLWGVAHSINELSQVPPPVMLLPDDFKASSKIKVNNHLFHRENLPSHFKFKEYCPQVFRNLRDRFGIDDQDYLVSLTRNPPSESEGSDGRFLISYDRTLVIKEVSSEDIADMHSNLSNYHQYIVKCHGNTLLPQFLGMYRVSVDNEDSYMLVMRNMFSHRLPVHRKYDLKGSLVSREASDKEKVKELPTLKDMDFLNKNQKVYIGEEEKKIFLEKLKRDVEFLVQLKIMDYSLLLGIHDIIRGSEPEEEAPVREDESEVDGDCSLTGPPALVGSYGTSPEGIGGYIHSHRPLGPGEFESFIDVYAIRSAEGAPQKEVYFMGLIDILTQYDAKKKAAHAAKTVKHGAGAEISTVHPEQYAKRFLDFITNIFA
Outline: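 IC50 values come from Hill-equation fits (Levenberg-Marquardt) to 11-point duplicate titrations starting at 5 micromolar. Read-out is competition of compound with an immobilized ligand for the kinase active site.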

| Compound | IC50 |
| --- | --- |
| CNC(=O)[C@H]1CC[C@H](Nc2ncc(Cl)c(-c3ccc(=O)n(C4CC4)c3)n2)CC1 [Compound 106, trans-(1r,4r)-4-((5-chloro-4-(1-cyclopropyl-6-oxo-1,6-dihydropyridin-3-yl)pyrimidin-2-yl)amino)-N-methylcyclohexane-1-carboxamide] | 0.5 to 1 µM |
| CNC(=O)[C@H]1CC[C@@H](Nc2ncc(Cl)c(-c3cnn(C4CC4)c3)n2)CC1 [Compound 107, cis-(1s,4s)-4-((5-chloro-4-(1-cyclopropyl-1H-pyrazol-4-yl)pyrimidin-2-yl)amino)-N-methylcyclohexane-1-carboxamide] | 0.5 to 1 µM |
| CNC(=O)[C@H]1CC[C@@H](Nc2ncc(Cl)c(-c3cnn(C4CCCCC4)c3)n2)CC1 [Compound 108, cis-(1s,4s)-4-((5-chloro-4-(1-cyclohexyl-1H-pyrazol-4-yl)pyrimidin-2-yl)amino)-N-methylcyclohexane-1-carboxamide] | 1 to 5 µM |
| CC(=O)N1CCC(Nc2ncc(Cl)c(-c3ccn(C4CCCCC4)n3)n2)CC1 [Compound 109, 1-(4-((5-chloro-4-(1-cyclohexyl-1H-pyrazol-3-yl)pyrimidin-2-yl)amino)piperidin-1-yl)ethan-1-one] | 1 to 5 µM |
| CNC(=O)[C@H]1C[C@H](Nc2ncc(Cl)c(-c3cnn(-c4ccc(F)cc4)c3)n2)C1 [Compound 123, trans-(1r,3r)-3-((5-chloro-4-(1-(4-fluorophenyl)-1H-pyrazol-4-yl)pyrimidin-2-yl)amino)-N-methylcyclobutane-1-carboxamide] | 0.5 to 1 µM |
| CC(=O)N[C@H]1CC[C@H](Nc2ncc(Cl)c(C3CCCN(C(=O)c4ccc(F)cc4)C3)n2)CC1 (stereo partly drawn) [Compound 124, trans-N-(4-((5-chloro-4-(1-(4-fluorobenzoyl)piperidin-3-yl)pyrimidin-2-yl)amino)cyclohexyl)acetamide] | < 0.5 µM |
| CC(=O)N1CCC(Nc2ncc(Cl)c(C3CCCN(C(=O)c4ccc(F)cc4)C3)n2)CC1 (stereo not shown) [Compound 125, 1-(4-((5-chloro-4-(1-(4-fluorobenzoyl)piperidin-3-yl)pyrimidin-2-yl)amino)piperidin-1-yl)ethan-1-one] | 1 to 5 µM |
| CC(=O)N[C@H]1CC[C@H](Nc2ncc(Cl)c(C3CCN(C(=O)c4ccc(F)cc4)C3)n2)CC1 (stereo partly drawn) [Compound 126, trans-N-(4-((5-chloro-4-(1-(4-fluorobenzoyl)pyrrolidin-3-yl)pyrimidin-2-yl)amino)cyclohexyl)acetamide] | 1 to 5 µM |
| CC(=O)N1CCC(Nc2ncc(Cl)c(C3CCN(C(=O)c4ccc(F)cc4)C3)n2)CC1 (stereo not shown) [Compound 127, 1-(4-((5-chloro-4-(1-(4-fluorobenzoyl)pyrrolidin-3-yl)pyrimidin-2-yl)amino)piperidin-1-yl)ethan-1-one] | 0.5 to 1 µM |
| CC(=O)N1CCC[C@H](Nc2ncc(Cl)c(-c3cccc(-c4ccc(F)cc4)c3)n2)C1 [Compound 128, (S)-1-(3-((5-chloro-4-(4′-fluoro-[1,1′-biphenyl]-3-yl)pyrimidin-2-yl)amino)piperidin-1-yl)ethan-1-one] | < 0.5 µM |
| CC(=O)N1CCC[C@H](Nc2ncc(Cl)c(-c3cccc(-n4ccccc4=O)c3)n2)C1 [Compound 129, (S)-1-(3-(2-((1-acetylpiperidin-3-yl)amino)-5-chloropyrimidin-4-yl)phenyl)pyridin-2(1H)-one] | < 0.5 µM |
| CC(=O)N[C@H]1CC[C@@H](Nc2ncc(Cl)c(-c3cccc(-c4ccc(F)cc4)n3)n2)CC1 [Compound 130, cis-N-((1s,4s)-4-((5-chloro-4-(6-(4-fluorophenyl)pyridin-2-yl)pyrimidin-2-yl)amino)cyclohexyl)acetamide] | < 0.5 µM |
| CNC(=O)[C@H]1CC[C@@H](Nc2ncc(Cl)c(-c3cccc(-c4ccc(F)cc4)n3)n2)CC1 [Compound 131, cis-(1s,4s)-4-((5-chloro-4-(6-(4-fluorophenyl)pyridin-2-yl)pyrimidin-2-yl)amino)-N-methylcyclohexane-1-carboxamide] | < 0.5 µM |
| CC(=O)N1CCC(Nc2ncc(Cl)c(-c3cc(C4CC4)[nH]n3)n2)CC1 [Compound 132, 1-(4-((5-chloro-4-(5-cyclopropyl-1H-pyrazol-3-yl)pyrimidin-2-yl)amino)piperidin-1-yl)ethan-1-one] | < 0.5 µM |
| CNC(=O)[C@H]1C[C@H](Nc2ncc(Cl)c(-c3cnn(-c4cc[nH]c(=O)c4)c3)n2)C1 [Compound 133, trans-(1r,3r)-3-((5-chloro-4-(1-(2-oxo-1,2-dihydropyridin-4-yl)-1H-pyrazol-4-yl)pyrimidin-2-yl)amino)-N-methylcyclobutane-1-carboxamide] | 0.5 to 1 µM |
| CNC(=O)[C@H]1CC[C@H](Nc2ncc(Cl)c(-c3cnn(-c4ccc(F)cc4)c3)n2)CC1 [Compound 134, trans-(1r,4r)-4-((5-chloro-4-(1-(4-fluorophenyl)-1H-pyrazol-4-yl)pyrimidin-2-yl)amino)-N-methylcyclohexane-1-carboxamide] | < 0.5 µM |
| CC(=O)N1CCC(Nc2ncc(Cl)c(-c3cccc(-c4ccc[nH]c4=O)c3)n2)CC1 [Compound 137, 3-(3-(2-((1-acetylpiperidin-4-yl)amino)-5-chloropyrimidin-4-yl)phenyl)pyridin-2(1H)-one] | < 0.5 µM |
| CNC(=O)[C@H]1CC[C@@H](Nc2ncc(Cl)c(-c3cccc(-c4ccc[nH]c4=O)c3)n2)CC1 [Compound 138, cis-(1s,4s)-4-((5-chloro-4-(3-(2-oxo-1,2-dihydropyridin-3-yl)phenyl)pyrimidin-2-yl)amino)-N-methylcyclohexane-1-carboxamide] | < 0.5 µM |

Other lines, results leading:

| IC50 | Compound |
| --- | --- |
| < 0.5 µM | CNC(=O)[C@H]1CC[C@@H](Nc2ncc(Cl)c(-c3cccc(-n4ccccc4=O)c3)n2)CC1 [Compound 104, cis-(1s,4s)-4-((5-chloro-4-(3-(2-oxopyridin-1 (2H)-yl)phenyl)pyrimidin-2-yl)amino)-N-methylcyclohexane-1-carboxamide] |
| < 0.5 µM | CC(=O)N1CCC(Nc2ncc(Cl)c(-c3ccnc(-c4ccc(F)cc4)c3)n2)CC1 [Compound 105, 1-(4-((5-chloro-4-(2-(4-fluorophenyl)pyridin-4-yl)pyrimidin-2-yl)amino)piperidin-1-yl)ethan-1-one] |
| < 0.5 µM | CC(=O)N1CCC(Nc2ncc(Cl)c(-c3cnn(-c4ccc(=O)[nH]c4)c3)n2)CC1 [Compound 110, 5-(4-(2-((1-acetylpiperidin-4-yl)amino)-5-chloropyrimidin-4-yl)-1H-pyrazol-1-yl)pyridin-2(1H)-one] |
| < 0.5 µM | CC(=O)N1CCC(Nc2ncc(Cl)c(-c3cnn(-c4ccc[nH]c4=O)c3)n2)CC1 [Compound 111, 3-(4-(2-((1-acetylpiperidin-4-yl)amino)-5-chloropyrimidin-4-yl)-1H-pyrazol-1-yl)pyridin-2(1H)-one] |
| < 0.5 µM | CC(=O)N1CCC(Nc2ncc(Cl)c(-c3cccc(-c4ccc(F)cc4)n3)n2)CC1 [Compound 114, 1-(4-((5-chloro-4-(6-(4-fluorophenyl)pyridin-2-yl)pyrimidin-2-yl)amino)piperidin-1-yl)ethan-1-one] |
| < 0.5 µM | CNC(=O)[C@H]1C[C@@H](Nc2ncc(Cl)c(-c3cccc(-c4ccc(F)cc4)n3)n2)C1 [Compound 115, cis-3-((5-chloro-4-(6-(4-fluorophenyl)pyridin-2-yl)pyrimidin-2-yl)amino)-N-methylcyclobutane-1-carboxamide] |
| < 0.5 µM | CC(=O)N[C@H]1CC[C@H](Nc2ncc(Cl)c(-c3cnn(C4CC4)c3)n2)CC1 [Compound 116, trans-N-((1r,4r)-4-((5-chloro-4-(1-cyclopropyl-1H-pyrazol-4-yl)pyrimidin-2-yl)amino)cyclohexyl)acetamide] |
| < 0.5 µM | CNC(=O)[C@H]1CC[C@H](Nc2ncc(Cl)c(-c3cnn(C4CC4)c3)n2)CC1 [Compound 117, trans-(1r,4r)-4-((5-chloro-4-(1-cyclopropyl-1H-pyrazol-4-yl)pyrimidin-2-yl)amino)-N-methylcyclohexane-1-carboxamide] |
| < 0.5 µM | CNC(=O)[C@H]1CC[C@H](Nc2ncc(Cl)c(-c3cnn(C4CCCCC4)c3)n2)CC1 [Compound 118, trans-(1r,4r)-4-((5-chloro-4-(1-cyclohexyl-1H-pyrazol-4-yl)pyrimidin-2-yl)amino)-N-methylcyclohexane-1-carboxamide] |
| < 0.5 µM | CNC(=O)[C@H]1C[C@H](Nc2ncc(Cl)c(-c3cnn(-c4ccc(=O)[nH]c4)c3)n2)C1 [Compound 119, trans-(1r,3r)-3-((5-chloro-4-(1-(6-oxo-1,6-dihydropyridin-3-yl)-1H-pyrazol-4-yl)pyrimidin-2-yl)amino)-N-methylcyclobutane-1-carboxamide] |
| < 0.5 µM | CC(=O)N1CCC(Nc2ncc(Cl)c(-c3cnn(-c4cc[nH]c(=O)c4)c3)n2)CC1 [Compound 120, 4-(4-(2-((1-acetylpiperidin-4-yl)amino)-5-chloropyrimidin-4-yl)-1H-pyrazol-1-yl)pyridin-2(1H)-one] |
| < 0.5 µM | CC(=O)N[C@H]1CC[C@H](Nc2ncc(Cl)c(-c3cnn(-c4ccc(F)cc4)c3)n2)CC1 [Compound 121, trans-N-((1r,4r)-4-((5-chloro-4-(1-(4-fluorophenyl)-1H-pyrazol-4-yl)pyrimidin-2-yl)amino)cyclohexyl)acetamide] |
| < 0.5 µM | CNC(=O)[C@H]1C[C@@H](Nc2ncc(Cl)c(-c3cnn(-c4ccc(F)cc4)c3)n2)C1 [Compound 122, cis-(1s,3s)-3-((5-chloro-4-(1-(4-fluorophenyl)-1H-pyrazol-4-yl)pyrimidin-2-yl)amino)-N-methylcyclobutane-1-carboxamide] |

Reference: patent US20260355196A1, “INHIBITORS AND DEGRADERS OF PIP4K PROTEIN” (Larkspur Biosciences, Inc., priority 2023, published 2026)
